From paper PMC9596378, “Discovery and molecular basis of subtype-selective cyclophilin inhibitors” (Nature Chemical Biology, 2022)
Where two headings read alike, the source gives them in different places.

Key:
NKTR = target: T1, NKTR (Homo sapiens, UniProt P30414); experiment: Chymotrypsin coupled prolyl-isomerase assay; assay type: biochemical
T1 construct: NKTR (UniProtKB Entry P30414: residues 7–179); host or cells: E. coli BL21(DE3)
T1 sequence (P30414 7-179): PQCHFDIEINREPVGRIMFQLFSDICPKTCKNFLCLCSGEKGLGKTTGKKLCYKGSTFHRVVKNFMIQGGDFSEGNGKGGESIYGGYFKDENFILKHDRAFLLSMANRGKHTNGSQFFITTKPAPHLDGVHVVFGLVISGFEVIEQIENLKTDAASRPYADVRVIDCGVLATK
Protocol: Adapting a previously described protocol[51], with an Agilent Bravo Velocity 11 with a 384ST head, 90 µL assay buffer (25 mM HEPES pH 7.3, 100 mM NaCl, 0.01% Triton X-100) containing 5.28 nM cyclophilin was added into a flat, clear-bottom, black 384-well plate pre-chilled in a Corning CoolBox at 2–3 °C. Five microliters of compound pre-dissolved in 5% DMSO/assay buffer was then added to appropriate wells and incubated at 2–3 °C for 5 min. Five microliters of 0.5 mM α-chymotrypsin from bovine pancreas (Type II, lyophilized powder, Millipore-Sigma) in 20% 1 mM HCl/Assay Buffer was then added to each well and incubated at 2–3 °C for 5 min. […] Using the internal liquid handling system of the FLIPR, 1 µL 0.5 mM Suc-AAPF-AMC (Chymotrypsin Substrate II, Millipore-Sigma) dissolved in 0.55 M LiCl/2,2,2-trifluoroethanol was added to each well, which was then mixed for 5 s, followed by immediate fluorescence measurements every 1 s for 330 s using a 360–380 nm excitation LED module and a 400–460 nm emission filter. Final concentrations of the plate include 5 nM cyclophilin, 0.25% DMSO, 25 µM α-chymotrypsin, 5 µM Suc-AAPF-AMC. Raw fluorescence data was analyzed by non-linear regression analysis with Prism v.9 by fitting one-phase association curves to each well. Analyses were halted after the calculated maximum fluorescent value owing to observed fluorescent bleaching during the sustained fluorescent plateau. Rate constants calculated for each well (s^−1) were then normalized to substrate only (no prolyl-isomerase) and enzyme + substrate only controls. IC50 values were calculated as the value at which 50% inhibition was achieved on the non-linear regression fitted curve of each compound.

CypB = target: T2, CypB (Homo sapiens, UniProt P23284); experiment: biochemical; settings: wild-type CypB; read-out: Wild-Type Cyclophilin Prolyl Isomerase Inhibition IC50 Values, CypB
T2 construct: PPIB (UniProtKB Entry P23284: residues 34–216); His6 with TEV site (2BT vector leader) (N); made in house; host or cells: E. coli BL21(DE3)
T2 sequence (P23284 34-216): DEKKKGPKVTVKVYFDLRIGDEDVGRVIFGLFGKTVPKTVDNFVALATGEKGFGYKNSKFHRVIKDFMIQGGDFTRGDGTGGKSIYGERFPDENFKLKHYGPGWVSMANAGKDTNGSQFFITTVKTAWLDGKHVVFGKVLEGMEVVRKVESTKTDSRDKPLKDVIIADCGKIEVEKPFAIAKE
Method in brief: (§1)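 5 nM Cyp, HEPES pH 7.3/NaCl/Triton buffer, 2–3 °C; cpd 5 min, chymotrypsin 25 µM 5 min, then Suc-AAPF-AMC 5 µM in LiCl/TFE. Kinetic fluorescence 330 s. Per-well rate constants, normalized, IC50 from nonlinear fit.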

CypC = target: T3, CypC (Homo sapiens, UniProt P45877); experiment: Chymotrypsin coupled prolyl-isomerase assay; assay type: biochemical
T3 construct: PPIC (UniProtKB Entry P45877: residues 24–212); host or cells: E. coli BL21(DE3)
T3 sequence (P45877 24-212): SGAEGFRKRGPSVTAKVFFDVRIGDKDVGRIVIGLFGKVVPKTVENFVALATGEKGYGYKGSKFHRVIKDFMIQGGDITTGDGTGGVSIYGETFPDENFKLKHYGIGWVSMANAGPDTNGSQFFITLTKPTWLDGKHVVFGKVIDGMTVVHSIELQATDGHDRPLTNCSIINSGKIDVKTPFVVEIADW
Method in brief: as §1

CypA = target: T4, CypA (Homo sapiens, UniProt P62937); experiment: Chymotrypsin coupled prolyl-isomerase assay; assay type: biochemical; settings: wild-type CypA; read-out: Wild-Type Cyclophilin Prolyl Isomerase Inhibition IC50 Values, CypA
T4 construct: PPIA (UniProtKB Entry P62937: residues 1–165); made in house; host or cells: E. coli BL21(DE3)
T4 sequence (P62937 whole entry, the tested form may be a part): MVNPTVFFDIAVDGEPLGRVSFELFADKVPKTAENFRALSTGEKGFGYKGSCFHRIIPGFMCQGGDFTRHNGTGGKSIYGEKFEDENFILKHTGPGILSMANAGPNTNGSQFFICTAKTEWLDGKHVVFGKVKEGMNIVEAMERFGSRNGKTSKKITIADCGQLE
Method in brief: as §1

CypE = target: T5, CypE (Homo sapiens, UniProt Q9UNP9); experiment: Chymotrypsin coupled prolyl-isomerase assay; assay type: biochemical; settings: wild-type CypE; read-out: Wild-Type Cyclophilin Prolyl Isomerase Inhibition IC50 Values, CypE
T5 construct: PPIE (UniProtKB Entry Q9UNP9: residues 131–301); host or cells: E. coli BL21(DE3)
T5 sequence (Q9UNP9 131-301): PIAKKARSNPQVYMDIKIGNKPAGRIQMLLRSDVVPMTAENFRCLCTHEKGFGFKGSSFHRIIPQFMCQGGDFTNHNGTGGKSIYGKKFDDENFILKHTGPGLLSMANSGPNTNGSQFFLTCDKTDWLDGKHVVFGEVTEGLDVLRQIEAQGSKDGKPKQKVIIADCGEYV
Method in brief: as §1

CypG = target: T6, CypG (Homo sapiens, UniProt Q13427); experiment: Chymotrypsin coupled prolyl-isomerase assay; assay type: biochemical
T6 construct: PPIG (UniProtKB Entry Q13427: residues 1–179); His6 with thrombin site (pET28a LIC leader) (N); host or cells: E. coli BL21(DE3)
T6 sequence (Q13427 1-179): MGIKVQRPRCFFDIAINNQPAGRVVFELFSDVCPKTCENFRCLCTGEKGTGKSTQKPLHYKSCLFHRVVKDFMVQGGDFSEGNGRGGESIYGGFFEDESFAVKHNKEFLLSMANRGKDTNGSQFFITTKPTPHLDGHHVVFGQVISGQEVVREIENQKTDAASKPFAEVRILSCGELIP
Method in brief: as §1

CypH = target: T7, CypH (Homo sapiens, UniProt O43447); experiment: Chymotrypsin coupled prolyl-isomerase assay; assay type: biochemical
T7 construct: PPIH (UniProtKB Entry O43447: residues 1–177); His6 with TEV site (2BT vector leader) (N); made in house; host or cells: E. coli BL21(DE3)
T7 sequence (O43447 whole entry, the tested form may be a part): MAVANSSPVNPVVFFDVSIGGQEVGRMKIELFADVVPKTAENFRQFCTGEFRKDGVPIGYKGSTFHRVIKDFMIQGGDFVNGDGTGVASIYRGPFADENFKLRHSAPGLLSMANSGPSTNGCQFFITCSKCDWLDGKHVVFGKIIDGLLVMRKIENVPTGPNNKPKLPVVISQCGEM
Method in brief: as §1

Cyp40 = Cyp40 (Homo sapiens, UniProt Q08752); experiment: Chymotrypsin coupled prolyl-isomerase assay
Chain of Cyp40 (Q08752 1-183): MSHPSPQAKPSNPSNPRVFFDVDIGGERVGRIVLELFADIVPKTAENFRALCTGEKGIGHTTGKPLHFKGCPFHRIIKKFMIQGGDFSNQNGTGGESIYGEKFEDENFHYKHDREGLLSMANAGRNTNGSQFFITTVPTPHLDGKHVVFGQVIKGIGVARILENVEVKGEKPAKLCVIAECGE
Method in brief: as §1

[1] = wild-type NKTR, read-out: Wild-Type Cyclophilin Prolyl Isomerase Inhibition IC50 Values, NKTR
[2] = wild-type CypC, read-out: Wild-Type Cyclophilin Prolyl Isomerase Inhibition IC50 Values, CypC
[3] = wild-type CypG, read-out: Wild-Type Cyclophilin Prolyl Isomerase Inhibition IC50 Values, CypG
[4] = wild-type CypH, read-out: Wild-Type Cyclophilin Prolyl Isomerase Inhibition IC50 Values, CypH

Row | SMILES | IC50 (NKTR; [1]) | IC50 (CypB) | IC50 (CypC; [2]) | IC50 (CypA) | IC50 (CypE) | IC50 (CypG; [3]) | IC50 (CypH; [4]) | IC50 (Cyp40; Wild-Type Cyclophilin Prolyl Isomerase Inhibition IC50 Values, Cyp40, wild-type Cyp40) | IC50 (NKTR; prolyl-isomerase inhibition, 5 nM cyclophilin, read-out: IC50 NKTR) | IC50 (CypC; prolyl-isomerase inhibition, 5 nM cyclophilin, read-out: IC50 CypC) | IC50 (CypG; prolyl-isomerase inhibition, 5 nM cyclophilin, read-out: IC50 CypG) | IC50 (CypH; prolyl-isomerase inhibition, 5 nM cyclophilin, read-out: IC50 CypH) | IC50 (Cyp40; read-out: Wild-Type Cyclophilin Prolyl Isomerase Inhibition IC50 Values, Cyp40, wild-type Cyp40)
1 | NCCCc1ccc(-c2ccc(C[C@@H]3NC(=O)[C@]4(Cc5ccccc5)CCCN(C4)C(=O)/C=C/C(=O)NCC[C@@H](C(=O)NCCOCCN)NC(=O)Cc4ccccc4CNC3=O)cc2)cc1 [Compound B32] | > 50 µM | 3 µM | 1.2 µM | 8 µM | 7 µM | 11 µM | > 50 µM | 4 µM | – | – | – | – | –
2 | C[N+]1=C(C=CC=CC=C2N(CCCCCC(=O)NCCNC(=O)C3CCNC(=O)C=CC(=O)N4CCCC(Cc5ccccc5)(C4)C(=O)NC(Cc4ccc(-c5ccc(CC(C(=O)O)C(=O)O)cc5)cc4)C(=O)NCc4ccccc4CC(=O)N3)c3ccccc3C2(C)C)C(C)(C)c2ccccc21 (centres unmarked) [Compound B52-Cy5] | 7 µM | 0.4 µM | 5 µM | 0.19 µM | 1 µM | 10 µM | 10 µM | – | ~7 µM | ~5 µM | ~10 µM | ~10 µM | > 10 µM
